Counter-ions that a name gives are not always drawn. Values belong to the compound of their own block, whether it stands above or below them.
Legend:
[1] = pH measurement of saturated basic salts in water; type: physicochemical; conditions: excess basic salt suspended in water, 37° C., 7 days
Experimental: The suspension was then incubated at 37° C. for 7 days. The pH of the supernatant was determined with a Corning 430 pH meter (Corning Inc., NY).

[2] = pH of saturated basic salt suspension after addition of 1 N HCl; type: physicochemical; conditions: acid added to the saturated suspension with excess salt, 37° C., 3 days
Text: The difference of the neutralization effect from the salts is also reflected in the different water contents of their PLGA devices.

[3] = target: T1, BSA (Bos taurus, UniProt P02769); test: BSA release and aggregation in PLGA millicylinders incubated in PBST at 37° C.; type: physicochemical, bovine
T1 construct: purchased Sigma Chemical Co. (St. Louis, Mo.) A-3059
Experimental: A solvent extrusion method similar to that used previously by our group for intraocular implants was used to prepare the PLGA cylinders with a diameter on the millimeter scale, which we term millicylinders. Briefly, a uniform suspension of sieved protein powder (<90 μm) with or without basic salt in 50% (w/w) acetone-PLGA 50/50 solution was loaded in a syringe and extruded into a silicone tubing (I.D. 0.8 mm) at about 0.1 ml/min. The solvent extruded suspension was dried at room temperature for 24 h and then dried in a vacuum oven at 45° C. for another 24 h before testing. The protein loading was calculated as the percentage of amount of BSA versus the total weight of mixture (i.e., protein, polymer, and salt).
Release of protein was carried out in PBST (which consists of PBS (7.74 mM Na2HPO4, 2.26 mM NaH2O4, 137 mM NaCl, and 3 mM KCl, pH 7.4), and 0.02% w/v Tween® 80) at 37° C. under perfect sink conditions. Millicylinders (10×0.8 mm, 5-10 mg or microspheres (about 20 mg) were placed in I ml of the release medium and the medium was replaced at each time point. The protein content was determined by using Coornassie plus protein assay reagent, which is also compatible with denaturing agents (e.g., 6 M urea) and reducing agents (e.g., 10 mM DTT).
Protein stability was assessed by the percentage of water insoluble non-covalent BSA aggregates generated within the implants versus the initial encapsulated protein. Protein stability within PLGA implants was analyzed as follows: First, millicylinders with a length of 1 cm were incubated under 80% and 96% relative humidity (RH) at 37° C. for 21 days. Then, the polymer was dissolved in acetone and centrifuged to spin down the protein. The remaining protein pellet was washed three times with acetone and then air-dried. The final protein pellet was analyzed as in Analysis of the Protein Extracted from PLGA Implants. The protein remaining in PLGA implants after release in PBST at 37° C. for 28 days was also extracted similarly and analyzed as above.
The BSA pellet extracted from PLGA implants was first reconstituted in PBST and incubated at 37° C. overnight to determine the soluble protein fraction remaining in the polymer. Any remaining aggregates were collected by centrifugation again, and brought up in the denaturing solvent (PBST/6 M urea/1 mM EDTA) and incubated at 37° C. for 30 mm to dissolve non-covalent bonded BSA aggregates. Then, any final undissolved BSA aggregates were collected again and dissolved in the reducing solvent (the denaturing solvent plus 10 mM DTT) to dissolve any disulfide-bonded aggregates.
For quantitation of soluble BSA, a modified Bradford assay was used as follows: 10 μl of standard or sample in PBST was added to 250 μl of Coomassle reagent/well on a 96-well plate and then the plate was read at 595 nm using a Dynex MRX microplate reader (Dynex Technology, Inc., Chantilly, Va.). The concentration range of the standard curve was 50 to 1000 μg/ml. For quantitation of non-covalent and covalent BSA aggregates, the solvents used for preparation of standards and samples were 6 M urea and 6 M urea/10 mM DTT, respectively.
The solvent-extruded suspension was dried at room temperature (24 h) and then dried in a vacuum oven at 45° C. (24 h). For preparation of bFGF millicylinders, bFGF was combined with heparin, sucrose and BSA additives at a weight ratio (additive bFGF) of 1, 180, and 1000, respectively, in 0.5 mM EDTA and 10 mM sodium phosphate buffer (pH 7.4). The solution was lyophilized for 2 days at room temperature using a Labconco Freeze Dry System (Kansas City, Mo.) to a fine powder with 4% moisture (determined by a Karl Fisher Titrator (Model DL 18, Mettler-Toledo Inc., NJ)) and sieved before suspension in PLGA-acetone and extrusion. For preparation of […] millicylinders, solutions of BMP-2 combined with BSA or gum arabic (Sigma, St. Louis, Mo.) were similarly lyophilized and sieved. The millicylinders; were prepared in the same way as for BSA/PLGA millicylinders. […]

[4] = target: T1, BSA; test: BSA release and aggregation in W/O/W PLGA microspheres in PBST at 37° C.; type: physicochemical, bovine
[5] = tested on: Balb/c 3T3 fibroblasts; test: Bioassay for bFGF, cell proliferation (3H-thymidine incorporation); type: cell-based; conditions: bFGF from Mg(OH)2/BSA/heparin PLGA millicylinders, release and residual fraction
Experimental: The biological activity of bFGF was determined by a cell proliferation assay (20). Balb/c 3T3 fibroblasts (25,000/well, CCL-163, ATCQ in Dulbecco's modified Eagle's medium (DMEM) containing 10% bovine calf serum, […] were seeded (200 μl/well) on 96-well plates. The cells were grown to confluence for one week without changing the medium. On day 7, bFGF samples or standards (10 μl) in the release medium were added and followed 20 h later by addition of 1 μCi of 3H-thymidine (6.7 Ci/mmol, DuPont/NEN® Research Products, Boston, Mass.) per well. After another 6-8 h, the cells were collected on filter paper by using a PHD TM cell harvester (Cambridge Technology Inc.). The harvested cells were resuspended in 3 ml of scintillation cocktail 3a7OB (Research Products International Corp., IL) and counted (Beckman LS 1701 scintillation counter).

[6] = tested on: nude mice; test: In vivo angiogenesis of subcutaneously implanted bFGF devices; conditions: BSA/Mg(OH)2-containing PLGA formulation implanted subcutaneously, data not shown
Text: In both cases, a controlled release of protein was observed over 28 days (data not shown) resulting in a recovery (released+soluble residue fraction) of >80% (Table 3). In contrast, when the base was removed from the formulation (18% gum arabic), only 30% protein was recovered by the immunoassay. Therefore, the stability characteristic of BMP-2 in PLGA millicylinders was very similar to that of bFGF (although additional stabilizers were used for bFGF) with and without the addition of the basic additive. For both growth factors, in the absence of basic additive, the protein was released mostly on the first day and only a small amount of protein could be recovered from the polymer after 28 days release. In the presence of the basic salt, both proteins were continuously released with >80% recoverable in the 28-day experiment. Moreover, the in vivo biological activities (angiogenesis in nude mice for the bFGF and osteogenesis in rats for the BMP-2) of the BSA/Mg(OH)2-containing formulations were also confirmed when the devices were implanted subcutaneously (data not shown).

[7] = reference (31); cited from earlier work
[8] = target: T1, BSA; test: Simulation of BSA instability in the polymer microclimate; type: physicochemical, bovine; conditions: Simulated: lyophilized BSA at pH 2 under 86% R.H. at 37° C.
Experimental: Three experiments were designed to simulate the potential deleterious conditions in PLGA devices. […] At various times, the protein was reconstituted in PBST and examined for the type of aggregates as described above. To examine the effect of water, water was directly added to lyophilized BSA at pH 2, sealed and then incubated at 37° C. for 1 week, and analyzed as above (16). […] Loss of BSA content from solution was used to determine the extent of BSA adsorption to the polymer.

[9] = target: tPA (Homo sapiens, UniProt P00750); test: tPA release from PLGA millicylinders by activity analysis; type: physicochemical
Experimental: Here, by using this rationale, tPA was successfully encapsulated into PLGA implants. tPA, a protein with a MW of ˜60 K Da is a tissue type endogenous serine proteaese involved in thrombi dissolution. The FDA has approved the use of recombinant tPA in the treatment of myocardial infarction. Controlled release systems for local delivery was developed by using hydrogel to control wound healing. A multi-drug controlled release implant with tPA encapsulated was also tested for the intraocular management of proliferative vitroretinopahty (PVR). […] Arginine hydrochloride and BSA were added in the release medium to improve the stability of released tPA. The release profile and active residue of tPA after release was evaluated by activity analysis. […] As far as is known, only very few protein formulations have shown continuous and complete release over one month period without losing activity.

[10] = VCR and VBL stability and release in PLGA microspheres by HPLC; type: physicochemical
Experimental: All other reagents and solvents were of analytical grade or purer and purchased from commercial suppliers. Microspheres Preparation Microspheres were prepared by a standard oil-in-oil emulsion-solvent extraction method (17). […] The resulting solution or suspension was added drop-wise to 25 ml of oil (95% cottonseed oil and 5% Span 85 emulsifier) stirred at 500 rpm and room temperature. After 2.5 h of microsphere hardening. 40 ml of petroleum ether (bp: 50 to 100° C.) were added to the emulsion to extract CAN. The emulsion was stirred for additional 15 min, the particles were collected by filtration, and washed 3 times with petroleum ether. The hardened microspheres were flash-frozen with liquid nitrogen and lyophilized with a Labconco Freezone 6 system for 1 day.
The HPLC system consisted of the following: a 510 pump, a 717 Plus autosampler, and a 486 UV detector (waters, Milford, Mass.). […] The mobile phase was composed of aqueous solution of sodium phosphate (10 mM) and methanol 40:60 (v/v) (pH 7.0). For UV detection, the wavelength was set to 298 nm.
Drug release from microspheres was carried out in PBS (127 mM NaCl, 3 mM KCl, 8 mM Na2HPO4, 1 mM KH2PO4, pH 7.4) containing Tween 80 (0.02% w/w/) (PBST) at 37° C. under perfect sink conditions. […] Microspheres were weighed and dissolved in a 50% (v/v) ACN water solution. The precipitated polymer and salts were spun down by brief centrifugation. An aliquot of the supernatant containing drug was removed and analyzed by HPLC.

T1 sequence (P02769 25-607): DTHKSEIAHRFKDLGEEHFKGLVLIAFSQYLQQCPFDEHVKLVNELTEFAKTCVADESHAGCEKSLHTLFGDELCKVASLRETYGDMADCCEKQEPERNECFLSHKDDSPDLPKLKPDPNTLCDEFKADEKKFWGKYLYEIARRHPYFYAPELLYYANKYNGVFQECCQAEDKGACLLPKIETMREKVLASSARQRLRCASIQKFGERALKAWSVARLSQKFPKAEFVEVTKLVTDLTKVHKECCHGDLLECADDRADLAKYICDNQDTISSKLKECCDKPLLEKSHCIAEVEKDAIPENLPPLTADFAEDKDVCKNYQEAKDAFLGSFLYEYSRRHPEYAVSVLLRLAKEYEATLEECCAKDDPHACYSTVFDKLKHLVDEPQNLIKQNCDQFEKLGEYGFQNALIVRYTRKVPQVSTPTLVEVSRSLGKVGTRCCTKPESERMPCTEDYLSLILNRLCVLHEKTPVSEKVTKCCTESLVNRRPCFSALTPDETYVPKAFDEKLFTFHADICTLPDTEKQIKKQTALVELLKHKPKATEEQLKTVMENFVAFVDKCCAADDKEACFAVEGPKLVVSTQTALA
Sequence of tPA (P00750 36-562): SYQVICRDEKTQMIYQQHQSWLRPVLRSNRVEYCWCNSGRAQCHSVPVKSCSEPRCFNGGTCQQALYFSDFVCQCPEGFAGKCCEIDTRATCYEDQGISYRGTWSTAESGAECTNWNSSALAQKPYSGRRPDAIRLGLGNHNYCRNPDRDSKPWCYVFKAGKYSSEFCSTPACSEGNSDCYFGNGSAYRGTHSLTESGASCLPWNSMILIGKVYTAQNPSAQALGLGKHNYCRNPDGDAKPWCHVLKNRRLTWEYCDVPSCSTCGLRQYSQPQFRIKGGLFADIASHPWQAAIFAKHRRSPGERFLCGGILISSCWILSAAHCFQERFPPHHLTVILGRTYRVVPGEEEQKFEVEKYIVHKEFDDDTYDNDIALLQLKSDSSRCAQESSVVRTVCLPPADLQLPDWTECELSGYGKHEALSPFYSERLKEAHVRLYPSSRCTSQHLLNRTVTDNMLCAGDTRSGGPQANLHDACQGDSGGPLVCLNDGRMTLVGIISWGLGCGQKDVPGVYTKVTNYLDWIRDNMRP

Compound: [Ca+2].[OH-].[OH-] [Ca(OH)2]
pH of saturated solution [1]: 12.4
pH after addition of 100 μl of 1 N HCl [2]: 12.20

Compound: O=C([O-])[O-].[Mg+2] [MgCO3]
pH of saturated solution [1]: 9.75
pH after addition of 100 μl of 1 N HCl [2]: 9.01
stabilization of BSA ([3]; PLGA millicylinders): stabilized BSA much better than the Mg(OH)2
Released ([4]; 3% BSA/PLGA50/50 (0.20 dl/g) microspheres, 51-day release in PBST at 37° C.): more than 50%
BSA release after the first day burst over 28 days ([4]; 4% BSA/PLGA50/50 (0.64 dl/g) W/O/W microspheres with basic salt): up to 10%
burst ([4]; BSA/PLGA (0.20 dl/g) microspheres, data not shown): 32%

Compound: bFGF: recombinant human basic fibroblast growth factor
bFGF bioactive over the entire release interval [5]: 65-85%
in vivo biological activity, angiogenesis [6]: confirmed
in vivo serum half-life [7]: < 3 min

Compound: O=P([O-])([O-])[O-].O=P([O-])([O-])[O-].[Ca+2].[Ca+2].[Ca+2] [Ca3(PO4)2]
pH of saturated solution [1]: 7.77
pH after addition of 100 μl of 1 N HCl [2]: 3.71

Compound: Bovine serum albumin [BSA]
initially encapsulated BSA that formed non-covalent aggregates ([3]; 15% BSA/PLGA implants without base, 2 weeks release in PBST at 37° C., previous results): more than 60%
Aggregates soluble in denaturing solvent ([3]; Encapsulated: 15% BSA in PLGA millicylinders in PBST at 37° C., PBST with 6M urea, 1 mM EDTA): >98%
Peptide fragmentation ([3]; Encapsulated: 15% BSA in PLGA millicylinders in PBST at 37° C., SDS-PAGE): 25, 40, and 55 kDa
Time to 50% aggregation ([3]; Encapsulated: 15% BSA in PLGA millicylinders incubated in PBST at 37° C.): 12 days
protein released in 1 day ([3]; PLGA millicylinders, 20% BSA loading without the base): > 90%
non-covalent aggregates ([4]; BSA in PLGA microspheres by solvent evaporation, no base): 25-75%
disulfide-bonded aggregates ([4]; BSA in PLGA microspheres, some control experiments): < 5%
Time to 50% aggregation [8]: 7 days
Aggregates soluble in denaturing solvent ([8]; PBST with 6M urea, 1 mM EDTA): >94%
Peptide fragmentation ([8]; SDS-PAGE): 25, 40, and 55 kDa

Compound: O=C([O-])[O-].[Ca+2] [CaCO3]
pH of saturated solution [1]: 9.26
pH after addition of 100 μl of 1 N HCl [2]: 6.07

Compound: CC[C@]1(O)C[C@@H]2CN(CCc3c([nH]c4ccccc34)[C@@](C(=O)OC)(c3cc4c(cc3OC)N(C)[C@H]3[C@@](O)(C(=O)OC)[C@H](OC(C)=O)[C@]5(CC)C=CCN6CC[C@]43[C@@H]65)C2)C1 [VBL, vinblastine sulfate]
stability of encapsulated drug ([10]; PLGA (50% D,L lactide content) microspheres): highly stabilized

Second part, the compound after the results:

pH of saturated solution [1]: 6.82
pH after addition of 100 μl of 1 N HCl [2]: 1.53
Compound: O=P([O-])([O-])[O-].O=P([O-])([O-])[O-].[Zn+2].[Zn+2].[Zn+2] [Zn3(PO4)2]

pH of saturated solution [1]: 8.85
pH after addition of 100 μl of 1 N HCl [2]: 5.86
Compound: [OH-].[OH-].[Zn+2] [Zn(OH)2]

one month release of tPA ([9]; 10% tPA powder in PLGA millicylinders with 3% Mg(OH)2): 98.0±0.2%
one month release of tPA ([9]; 10% tPA powder in PLGA millicylinders without Mg(OH)2): 77.1±2.6%
Compound: tPA: tissue type endogenous serine protease, encapsulated as 10% tPA powder in PLGA millicylinders

pH of saturated solution [1]: 7.34
pH after addition of 100 μl of 1 N HCl [2]: 5.36
drug degraded to the basic product during microsphere preparation ([10]; VCR PLGA microspheres with co-encapsulated base): 3%
Compound: O=C([O-])[O-].[Zn+2] [ZnCO3]

Source: patent publication US6743446B2, “Methods for stabilizing biologically active agents encapsulated in biodegradable controlled-release polymers” (The Ohio State University Research Foundation, priority 1999, dated 2004)
